Experimental data as given in PubChem BioAssay AID1259407 (Chemical Carcinogenesis Research Information System (CCRIS), 2018).
The source made the active and inactive calls. The rule behind the calls is not given here.

Tested on: CCRIS mutagenicity, Ames/micronucleus/aberration tests
Assay: CCRIS mutagenicity studies
[1] = Test System: AMES SALMONELLA TYPHIMURIUM, Strain/Indicator: TA98, Metabolic Activation: NONE, Method: STANDARD PLATE
[2] = Test System: AMES SALMONELLA TYPHIMURIUM, Strain/Indicator: TA98, Metabolic Activation: RAT, LIVER, S-9, AROCLOR 1254, Method: STANDARD PLATE
[3] = Test System: AMES SALMONELLA TYPHIMURIUM, Strain/Indicator: TA100, Metabolic Activation: NONE, Method: STANDARD PLATE
[4] = Test System: AMES SALMONELLA TYPHIMURIUM, Strain/Indicator: TA1537, Metabolic Activation: NONE, Method: STANDARD PLATE
[5] = Test System: AMES SALMONELLA TYPHIMURIUM, Strain/Indicator: TA98, Metabolic Activation: NONE, Method: PREINCUBATION
[6] = Test System: AMES SALMONELLA TYPHIMURIUM, Strain/Indicator: TA100, Metabolic Activation: NONE, Method: PREINCUBATION

CC(C)(C)NCC(O)COc1ccccc1C1=CCCC1 (stereo not drawn)
mutagenic call [1]: inactive; negative
mutagenic call [2]: inactive; negative

CCC(=O)NCc1ccccc1
mutagenic call [3]: inactive; negative

CN(C)c1ccc(N=Nc2ccc3ccccc3c2)cc1
mutagenic call (Test System: AMES SALMONELLA TYPHIMURIUM, Strain/Indicator: TA98, Metabolic Activation: HAMSTER, LIVER, S-9, AROCLOR 1254, Method: STANDARD PLATE): active; positive
mutagenic call (Test System: AMES SALMONELLA TYPHIMURIUM, Strain/Indicator: TA98, Metabolic Activation: HAMSTER, LIVER, S-9, Method: PREINCUBATION (PRIVAL METHOD)): active; positive
mutagenic call (Test System: AMES SALMONELLA TYPHIMURIUM, Strain/Indicator: TA98, Metabolic Activation: RAT, LIVER, S-9, AROCLOR 1254, HAMSTER, LIVER, S-9, AROCLOR 1254, Method: STANDARD PLATE): active; positive
mutagenic call (Test System: AMES SALMONELLA TYPHIMURIUM, Strain/Indicator: TA100, Metabolic Activation: HAMSTER, LIVER, S-9, Method: PREINCUBATION (PRIVAL METHOD)): active; positive
mutagenic call (Test System: AMES SALMONELLA TYPHIMURIUM, Strain/Indicator: TA1538, Metabolic Activation: RAT, LIVER, S-9, AROCLOR 1254, HAMSTER, LIVER, S-9, AROCLOR 1254, Method: STANDARD PLATE): active; positive
mutagenic call (Test System: MOUSE LYMPHOMA, Strain/Indicator: L5178Y (TK+/TK-), Metabolic Activation: RAT, LIVER, S-9, AROCLOR 1254, Method: SUSPENSION/PLATE): active; positive. reevaluation of results: positive
mutagenic call (Test System: Mouse lymphoma, Strain/Indicator: L5178Y (tk+/tk-), Metabolic Activation: None, Method: Suspension/plate): inactive; negative

O=C(/C=C/c1ccc(Br)cc1)c1ccccc1
mutagenic call [1]: inactive; negative
mutagenic call [2]: inactive; negative
mutagenic call [3]: inactive; negative
mutagenic call (Test System: AMES SALMONELLA TYPHIMURIUM, Strain/Indicator: TA100, Metabolic Activation: RAT, LIVER, S-9, AROCLOR 1254, Method: STANDARD PLATE): inactive; negative

CC(=O)N(Cl)c1ccc2c(c1)Cc1ccccc1-2
mutagenic call [2]: active; positive

CCCCOS(=O)(=O)c1ccc(C)cc1
mutagenic call (End Point: IN VITRO MICRONUCLEUS, Test System: MOUSE LYMPHOMA L5178Y CELLS, Metabolic Activation: NONE): active; positive
mutagenic call (End Point: IN VITRO MICRONUCLEUS, Test System: MOUSE LYMPHOMA L5178Y CELLS, Metabolic Activation: RAT, LIVER, S-9): inactive; negative
mutagenic call (End Point: In vitro micronucleus, Test System: Chinese Hamster Ovary (CHO-WBL) cells, Metabolic Activation: None): active; positive (p<0.01)
mutagenic call [3]: active; positive
mutagenic call (Test System: AMES SALMONELLA TYPHIMURIUM, Strain/Indicator: TA100, Metabolic Activation: RAT, LIVER, S-9, Method: STANDARD PLATE): active; positive

O=C(O)c1cc2c(c3c1c([N+](=O)[O-])cc1ccccc13)OCO2
mutagenic call (Test System: AMES SALMONELLA TYPHIMURIUM, Strain/Indicator: TA98, Metabolic Activation: RAT, LIVER, S-9, Method: STANDARD PLATE): inactive; negative
mutagenic call [3]: active; positive
mutagenic call (Test System: AMES SALMONELLA TYPHIMURIUM, Strain/Indicator: TA100, Metabolic Activation: RAT, LIVER, CYTOSOL, Method: STANDARD PLATE): active; positive
mutagenic call (Test System: AMES SALMONELLA TYPHIMURIUM, Strain/Indicator: TA100, Metabolic Activation: RAT, LIVER, MICROSOMES, Method: STANDARD PLATE): active; positive
mutagenic call (Test System: AMES SALMONELLA TYPHIMURIUM, Strain/Indicator: TA100, Metabolic Activation: RAT, LIVER, S-9, 3-METHYLCHOLANTHRENE, Method: STANDARD PLATE): active; positive
mutagenic call [4]: active; positive
mutagenic call (Test System: AMES SALMONELLA TYPHIMURIUM, Strain/Indicator: YG1020, Metabolic Activation: NONE, Method: STANDARD PLATE): active; positive
mutagenic call (Test System: AMES SALMONELLA TYPHIMURIUM, Strain/Indicator: YG1021, Metabolic Activation: NONE, Method: STANDARD PLATE): active; positive
mutagenic call (Test System: AMES SALMONELLA TYPHIMURIUM, Strain/Indicator: YG1024, Metabolic Activation: NONE, Method: STANDARD PLATE): active; positive
mutagenic call (Test System: AMES SALMONELLA TYPHIMURIUM, Strain/Indicator: YG1025, Metabolic Activation: NONE, Method: STANDARD PLATE): active; positive
mutagenic call (Test System: AMES SALMONELLA TYPHIMURIUM, Strain/Indicator: YG1026, Metabolic Activation: NONE, Method: STANDARD PLATE): active; positive
mutagenic call (Test System: AMES SALMONELLA TYPHIMURIUM, Strain/Indicator: YG1029, Metabolic Activation: NONE, Method: STANDARD PLATE): active; positive

COc1cc2oc(-c3ccc(O)cc3)c(O)c(=O)c2cc1OC
mutagenic call [5]: inactive; negative
mutagenic call (Test System: AMES SALMONELLA TYPHIMURIUM, Strain/Indicator: TA98, Metabolic Activation: RAT LIVER S-9, SODIUM BARBITAL AND BETA-NAPHTHAFLAVONE, Method: PREINCUBATION): inactive; negative
mutagenic call [6]: inactive; negative
mutagenic call (Test System: AMES SALMONELLA TYPHIMURIUM, Strain/Indicator: TA100, Metabolic Activation: RAT LIVER S-9, SODIUM BARBITAL AND BETA-NAPHTHAFLAVONE, Method: PREINCUBATION): inactive; negative

O[C@@H]1C=Cc2c(cc3ccc4cccc5ccc2c3c45)[C@H]1O
mutagenic call (Test System: CHINESE HAMSTER V-79, Strain/Indicator: V-79/OUABAIN, Metabolic Activation: HAMSTER, EMBRYO, CELL-MEDIATED, Method: STANDARD PLATE): active; positive

CCCCOB(OCCCC)OCCCC
mutagenic call (Test System: AMES SALMONELLA TYPHIMURIUM, Strain/Indicator: TA98, Metabolic Activation: HAMSTER, LIVER, S-9, AROCLOR 1254, Method: PREINCUBATION): inactive; negative
mutagenic call [5]: inactive; negative
mutagenic call (Test System: AMES SALMONELLA TYPHIMURIUM, Strain/Indicator: TA98, Metabolic Activation: RAT, LIVER, S-9, AROCLOR 1254, Method: PREINCUBATION): inactive; negative
mutagenic call (Test System: AMES SALMONELLA TYPHIMURIUM, Strain/Indicator: TA100, Metabolic Activation: HAMSTER, LIVER, S-9, AROCLOR 1254, Method: PREINCUBATION): inactive; negative
mutagenic call [6]: inactive; negative
mutagenic call (Test System: AMES SALMONELLA TYPHIMURIUM, Strain/Indicator: TA100, Metabolic Activation: RAT, LIVER, S-9, AROCLOR 1254, Method: PREINCUBATION): inactive; negative
mutagenic call (Test System: AMES SALMONELLA TYPHIMURIUM, Strain/Indicator: TA1535, Metabolic Activation: HAMSTER, LIVER, S-9, AROCLOR 1254, Method: PREINCUBATION): inactive; negative
mutagenic call (Test System: AMES SALMONELLA TYPHIMURIUM, Strain/Indicator: TA1535, Metabolic Activation: NONE, Method: PREINCUBATION): inactive; negative
mutagenic call (Test System: AMES SALMONELLA TYPHIMURIUM, Strain/Indicator: TA1535, Metabolic Activation: RAT, LIVER, S-9, AROCLOR 1254, Method: PREINCUBATION): inactive; negative
mutagenic call (Test System: AMES SALMONELLA TYPHIMURIUM, Strain/Indicator: TA1537, Metabolic Activation: HAMSTER, LIVER, S-9, AROCLOR 1254, Method: PREINCUBATION): inactive; negative
mutagenic call (Test System: AMES SALMONELLA TYPHIMURIUM, Strain/Indicator: TA1537, Metabolic Activation: NONE, Method: PREINCUBATION): inactive; negative
mutagenic call (Test System: AMES SALMONELLA TYPHIMURIUM, Strain/Indicator: TA1537, Metabolic Activation: RAT, LIVER, S-9, AROCLOR 1254, Method: PREINCUBATION): inactive; negative

Cc1cc([N+](=O)[O-])c(C)c2c1[nH]c1ccc([N+](=O)[O-])cc12
mutagenic call [1]: active; positive
mutagenic call (Test System: AMES SALMONELLA TYPHIMURIUM, Strain/Indicator: TA98, Metabolic Activation: RAT LIVER S-9, AROCLOR 1254, Method: STANDARD PLATE): active; positive
mutagenic call [3]: active; positive
mutagenic call (Test System: AMES SALMONELLA TYPHIMURIUM, Strain/Indicator: TA100, Metabolic Activation: RAT LIVER S-9, AROCLOR 1254, Method: STANDARD PLATE): active; positive
mutagenic call [4]: active; positive
mutagenic call (Test System: AMES SALMONELLA TYPHIMURIUM, Strain/Indicator: TA1537, Metabolic Activation: RAT LIVER S-9, AROCLOR 1254, Method: STANDARD PLATE): active; positive
mutagenic call (Test System: AMES SALMONELLA TYPHIMURIUM, Strain/Indicator: TA1977, Metabolic Activation: NONE, Method: STANDARD PLATE): active; positive
mutagenic call (Test System: AMES SALMONELLA TYPHIMURIUM, Strain/Indicator: TA1977, Metabolic Activation: RAT LIVER S-9, AROCLOR 1254, Method: STANDARD PLATE): active; positive

ClC[C@@]1(C(Cl)Cl)C2[C@@H](Cl)[C@H](Cl)C1(C(Cl)Cl)[C@@H](Cl)[C@@H]2Cl
mutagenic call [6]: inactive; negative
